Structures are written as SMILES. Bounds are passed on as bounds.

Experimental findings from US12281102B2, “Inhibitors of APOL1 and methods of using same” (Vertex Pharmaceuticals Incorporated, priority 2020, dated 2025) are described below.

One experiment has as its target T1, G1 APOL1 (Homo sapiens, UniProt O14791, I384M/S342G).
T1 construct: expressed in transfected cells
T1 sequence (O14791 28-398 S342G/I384M): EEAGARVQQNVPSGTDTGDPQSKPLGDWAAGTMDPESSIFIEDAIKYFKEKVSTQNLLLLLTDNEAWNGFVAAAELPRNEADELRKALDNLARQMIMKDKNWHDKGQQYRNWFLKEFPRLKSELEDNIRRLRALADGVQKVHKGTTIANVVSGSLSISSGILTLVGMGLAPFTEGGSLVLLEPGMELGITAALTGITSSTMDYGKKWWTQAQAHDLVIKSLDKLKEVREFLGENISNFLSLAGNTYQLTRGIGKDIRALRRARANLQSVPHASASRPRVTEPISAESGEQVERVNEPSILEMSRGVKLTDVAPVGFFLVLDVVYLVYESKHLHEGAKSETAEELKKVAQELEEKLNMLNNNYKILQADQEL
The experiment in a line: Acute APOL1 Thallium Assay with inducible stable clones of HEK 293 cells. Type of experiment: cell-based. As to conditions: HEK 293 T-Rex inducible stable clone expressing G1 APOL1; read-out: Thallium Assay (IC50). The text has this:
Acute APOL1 Thallium Assay with Inducible Stable Clones of HEK 293 Cells
Apolipoprotein L1 (APOL1) proteins form potassium-permeable cation pores in the plasma membrane. APOL1 risk variants (G1 and G2) induce greater potassium flux than G0 in HEK293 cells. This assay exploits the permeability of thallium (T1+) through ligand-gated potassium channels. The dye produces a bright fluorescent signal upon binding to T1+ conducted through potassium channels. The intensity of the T1+ signal is proportional to the number of potassium channels in the open state. Therefore, it provides a functional indication of the potassium channel activities. During the initial dye-loading step, the T1+ indicator dye as an acetoxymethyl (AM) ester enters the cells through passive diffusion. Cytoplasm esterases cleave the AM ester and relieve its active thallium-sensitive form. The cells are then stimulated with T1+. The increase of fluorescence in the assay represents the influx of T1+ into the cell specifically through the potassium channel (i.e. through APOL1 pores), providing a functional measurement of potassium channel/pore activity. The Thallium assay is conducted with cells expressing G1 APOL1.
APOL1 Cell Line (HEK T-Rex Stable Inducible Cell Line)
• HEK T-Rex System • Tetracycline (Tet) inducible mammalian expression system. • Stably express the Tet repressor to regulate transcription. • Expression under the full-length CMV promoter. • APOL1 stable inducible cell line Clone used: G1 DC3.25 Tissue Culture Media Cell Culture Medium • DMEM+10% FBS+P/S+5 μg/mL blasticidin+1 μg/mL puromycin. • 500 mL DMEM+55 mL FBS+5 mL P/S+280 μL blasticidin S HCl (10 mg/mL)+56 μL puromycin (10 mg/mL). Cell Assay Medium • DMEM with 2% FBS+penicillin streptomycin. Reagents:
Instruments and Equipment • Nuaire cell culture hood, Cat. No. 540-600 • 37° C./5% CO2 incubator link to robotic arm, Liconic: STX110 • Molecular Devices FLIPR^Tetra High throughput cellular screening system, Cat. No. FT0324, Molecular Devices • ThermoFisher MultiDrop 384, Cat. No. 5840300 • Biotek Microfill, Cat. No. ASF1000A-4145 • BioRad TC10 cell counter, Cat. No. 145-0010 Assay Procedures Cells Scaled Up from Frozen Vials • APOL1 G1 3.25 (HEK293 T-Rex) frozen vials: 5 million cells per vial • Step 1, Day 1: Defrost frozen vial into T-225. • Step 2, Day 5: (when 85% confluent): Split one T-225 at 3×10^6 cells per flask. • Step 3, Day 8: Splits cells to set up for the assay plates as described below. Cell Culture
T-Rex APOL1 HEK cells are split twice per week to keep the confluence state below 85% of the culture flask surface area. Cells can be kept until passage 25.
• DMEM high glucose+10% FBS, +P/S, +5 μg/mL blasticidin, +1 μg/mL puromycin. • 500 mL DMEM, +55 mL FBS, +5 mL P/S, +280 μL blasticidin 10 mg/mL, +56 μL Puromycin 10 mg/mL. Assay Media • Opti-MEM reduced serum medium from Invitrogen. Day 1 Preparation of Cell Assay Plates • Culture medium is removed from the x cm^2 T-flask by aspiration. • The cell monolayer is rinsed with PBS 1× at room temperature. PBS is removed by aspiration. • Cells are trypsinized using Trypsin. • The flasks are incubated at room temperature for 2-3 minutes. • Complete DMEM medium is then added. Cell suspension is then transferred to a 50 mL Falcon polypropylene tube. • Cells are then counted using a BioRad TC10 cell counter and the required amount of cells are centrifuged at 1200 RPM for 5 minutes. Required amount is 1.3×10^6 cells/mL APOL1 T-Rex HEK cells. • The pellet is suspended in the assay medium. • Using the MultiDrop, add 20 μL to each well (corresponds to 26000 cells total per well) of a 384-well black, transparent, flat bottom Poly-D coated plate. • Tetracycline as prepared in the following section is added to the cells before plating to induce APOL1 expression. • Plates are left at room temperature for 20 to 30 minutes before incubation at 37° C. and 5% CO2. […]
For `CC(CC(=O)NC[C@H]1C[C@@H](c2c(-c3ccc(F)cc3)[nH]c3c(F)cc(F)cc32)C1)N1CCOCC1` (mixture of isomers) [Compound 318], the IC50 is > 1000 nM.

Take `COCC(C)NS(=O)(=O)NC[C@H]1C[C@H](c2c(-c3ccc(F)cc3)[nH]c3c(F)cc(F)cc32)C1` (mixture of isomers) [Compound 342]: the IC50 is > 1000 nM.

As for `CC(CCO)NS(=O)(=O)NC[C@H]1C[C@H](c2c(-c3ccc(F)cc3)[nH]c3c(F)cc(F)cc32)C1` (mixture of isomers) [Compound 362], the half-inhibitory concentration (IC50) was in the range of 250 to 1000 nM.

As for `CC1(CO)CCN1S(=O)(=O)NC[C@H]1C[C@H](c2c(-c3ccc(F)cc3)[nH]c3c(F)cc(F)cc32)C1` (mixture of isomers) [Compound 364], the IC50 is > 1000 nM.

Consider `CC(NC(=O)O[C@H]1C[C@H](c2c(-c3ccc(F)cc3)[nH]c3c(F)cc(F)cc32)C1)C(N)=O` (mixture of isomers) [Compound 456, [3-[5,7-difluoro-2-(4-fluorophenyl)-1H-indol-3-yl]cyclobutyl]N-(2-amino-1-methyl-2-oxo-ethyl)carbamate], for which the IC50 was > 1000 nM.

As for `NC1CC(c2c(-c3ccc(C4CC4)cc3)[nH]c3ccc(F)cc23)C1` (centres unmarked) [Compound 7, 3-[2-(4-cyclopropylphenyl)-5-fluoro-1H-indol-3-yl]cyclobutanamine], the IC50 lay in the range of 250 to 1000 nM.

For `NC1CC(c2c(-c3ccc(OC(F)(F)F)cc3)[nH]c3c(F)cc(F)cc23)C1` (centres unmarked) [Compound 8, 3-[5,7-difluoro-2-[4-(trifluoromethoxy)phenyl]-1H-indol-3-yl]cyclobutanamine], the half-inhibitory concentration (IC50) was in the range of 250 to 1000 nM.

For `NC1CC(c2c(-c3ccc(OC(F)F)cc3)[nH]c3c(F)cc(F)cc23)C1` (centres unmarked) [Compound 9], the IC50 was < 250 nM.

As to `O=C(NC1CC(c2c(-c3ccc(F)cc3)[nH]c3c(F)cc(F)cc23)C1)OCc1ccccc1` (centres unmarked) [Compound 13, benzyl N-[3-[5,7-difluoro-2-(4-fluorophenyl)-1H-indol-3-yl]cyclobutyl]carbamate], the IC50 is > 1000 nM.

Consider `CC(=O)Nc1ccn(C2CC(c3c(-c4ccc(F)cc4)[nH]c4c(F)cc(F)cc34)C2)n1` (centres unmarked) [Compound 19, N-[1-[3-[5,7-difluoro-2-(4-fluorophenyl)-1H-indol-3-yl]cyclobutyl]pyrazol-3-yl]acetamide], for which the IC50 is > 1000 nM.

Regarding `O=C1NCC[C@@H]1NC1CC(c2c(-c3ccc(F)cc3)[nH]c3c(F)cc(F)cc23)C1` (stereo partly drawn) [Compound 20, (3S)-3-[[3-[5,7-difluoro-2-(4-fluorophenyl)-1H-indol-3-yl]cyclobutyl]amino]pyrrolidin-2-one], the IC50 is < 250 nM.

For `OCC1(NC2CC(c3c(-c4ccc(F)cc4)[nH]c4c(F)cc(F)cc34)C2)CC1` (centres unmarked) [Compound 21], the concentration for half-maximal inhibition (IC50) lay in the range of 250 to 1000 nM.

Take `Fc1ccc(-c2[nH]c3c(F)cc(F)cc3c2C2CC(NC3COC3)C2)cc1` (centres unmarked) [Compound 22]: the half-inhibitory concentration (IC50) is > 1000 nM.

Regarding `CC(=O)NCCNC1CC(c2c(-c3ccc(F)cc3)[nH]c3c(F)cc(F)cc23)C1` (centres unmarked) [Compound 23], the 50% inhibitory concentration (IC50) was > 1000 nM.

Take `CN(C1COC1)C1CC(c2c(-c3ccc(F)cc3)[nH]c3c(F)cc(F)cc23)C1` (centres unmarked) [Compound 24]: the IC50 was > 1000 nM.

In the case of `OCCNC1CC(c2c(-c3ccc(F)cc3)[nH]c3c(F)cc(F)cc23)C1` (centres unmarked) [Compound 25], the IC50 lay in the range of 250 to 1000 nM.

For the compound `Fc1ccc(-c2[nH]c3c(F)cc(F)cc3c2C2CC(NCC(F)F)C2)cc1` (centres unmarked) [Compound 26], the IC50 fell in the range of 250 to 1000 nM.

As for `O=C(N[C@H]1C[C@@H](c2c(-c3ccc(F)cc3)[nH]c3c(F)cc(F)cc32)C1)OCc1ccccc1` [Compound 27, benzyl((1s,3s)-3-(5,7-difluoro-2-(4-fluorophenyl)-1H-indol-3-yl)cyclobutyl)carbamate], the 50% inhibitory concentration (IC50) is > 1000 nM.

In the case of `O=C(CO)N[C@H]1C[C@@H](c2c(-c3ccc(F)cc3)[nH]c3c(F)cc(F)cc32)C1` [Compound 29, N-((1s,3s)-3-(5,7-difluoro-2-(4-fluorophenyl)-1H-indol-3-yl)cyclobutyl)-2-hydroxyacetamide], the half-maximal inhibitory concentration (IC50) fell in the range of 250 to 1000 nM.

Regarding `O=C(CC1CC(F)(F)C1)N[C@H]1C[C@@H](c2c(-c3ccc(F)cc3)[nH]c3c(F)cc(F)cc32)C1` [Compound 31], the IC50 is > 1000 nM.

For `CS(=O)(=O)CCCC(=O)N[C@H]1C[C@@H](c2c(-c3ccc(F)cc3)[nH]c3c(F)cc(F)cc32)C1` [Compound 32], the concentration for half-maximal inhibition (IC50) was > 1000 nM.

As for `O=C(Cn1cnnc1)N[C@H]1C[C@@H](c2c(-c3ccc(F)cc3)[nH]c3c(F)cc(F)cc32)C1` [Compound 33], the IC50 was > 1000 nM.

For `O=C(CC1CCOCC1)N[C@H]1C[C@@H](c2c(-c3ccc(F)cc3)[nH]c3c(F)cc(F)cc32)C1` [Compound 34], the 50% inhibitory concentration (IC50) was > 1000 nM.

As to `COC1(CC(=O)N[C@H]2C[C@@H](c3c(-c4ccc(F)cc4)[nH]c4c(F)cc(F)cc43)C2)CCC1` [Compound 37], the IC50 is > 1000 nM.

In the case of `CN(CC(=O)N[C@H]1C[C@@H](c2c(-c3ccc(F)cc3)[nH]c3c(F)cc(F)cc32)C1)S(C)(=O)=O` [Compound 38], the IC50 was > 1000 nM.

`CN1CCCC(CC(=O)N[C@H]2C[C@@H](c3c(-c4ccc(F)cc4)[nH]c4c(F)cc(F)cc43)C2)C1` (some centres unmarked) [Compound 39]: the IC50 was > 1000 nM.

In the case of `Cn1ccc(CC(=O)N[C@H]2C[C@@H](c3c(-c4ccc(F)cc4)[nH]c4c(F)cc(F)cc43)C2)n1` [Compound 41], the concentration for half-maximal inhibition (IC50) was > 1000 nM.

Regarding `CS(=O)(=O)NCC(=O)N[C@H]1C[C@@H](c2c(-c3ccc(F)cc3)[nH]c3c(F)cc(F)cc32)C1` [Compound 42], the IC50 was > 1000 nM.

In the case of `CCS(=O)(=O)NCC(=O)N[C@H]1C[C@@H](c2c(-c3ccc(F)cc3)[nH]c3c(F)cc(F)cc32)C1` [Compound 43], the IC50 was > 1000 nM.

As for `O=C(CCN1CCCC1)N[C@H]1C[C@@H](c2c(-c3ccc(F)cc3)[nH]c3c(F)cc(F)cc32)C1` [Compound 44], the half-inhibitory concentration (IC50) is > 1000 nM.

In the case of `CN1CCC(CC(=O)N[C@H]2C[C@@H](c3c(-c4ccc(F)cc4)[nH]c4c(F)cc(F)cc43)C2)C1` (some centres unmarked) [Compound 45], the half-inhibitory concentration (IC50) is > 1000 nM.

With `O=C(CN1CCCC1)N[C@H]1C[C@@H](c2c(-c3ccc(F)cc3)[nH]c3c(F)cc(F)cc32)C1` [Compound 46], the IC50 was > 1000 nM.

In the case of `O=C(CC1(O)CCCCC1)N[C@H]1C[C@@H](c2c(-c3ccc(F)cc3)[nH]c3c(F)cc(F)cc32)C1` [Compound 47], the IC50 is > 1000 nM.

The same experiment, now with this note: Thallium Assay (IC50), HEK 293 T-Rex inducible stable clone expressing G1 APOL1.
For the compound `NC1CC(c2c(-c3ccc(F)cc3)[nH]c3c(F)cc(F)cc23)C1` (centres unmarked) [Compound 14, 3-[5,7-difluoro-2-(4-fluorophenyl)-1H-indol-3-yl]cyclobutanamine], the IC50 was < 250 nM.

As to `N[C@H]1C[C@@H](c2c(-c3ccc(F)cc3)[nH]c3c(F)cc(F)cc32)C1` [Compound 28, (1s,3s)-3-(5,7-difluoro-2-(4-fluorophenyl)-1H-indol-3-yl)cyclobutan-1-amine], the 50% inhibitory concentration (IC50) was < 250 nM.
